Measurements reported in publication PMC9635468, “Biological evaluation, docking studies, and in silico ADME prediction of some pyrimidine and pyridine derivatives as potential EGFR^WT and EGFR^T790M inhibitors” (Journal of Enzyme Inhibition and Medicinal Chemistry, 2022).
Values after ≈ are worked out from the molar mass of the structure shown.

Key:
[1] = system: NF-kB; parameters: method as in PMID 25108361; conditions: inhibitory potential against NF-kB; cited from earlier work
[2] = system: VERO; test: Cytotoxicity screening, SRB assay, normal Vero cells; type: cell-based; conditions: 48 h, normal cell line; for IC50: Chlorocebus sabaeus, Vero
Experimental: (§1) In this study, a panel of cell lines was examined for their chemosensitivity. Different concentrations of the synthesised pyridines and pyrimidine derivatives were used in this study (5, 12.5, 25, and 50 µg/mL) for all the examined cell lines. In this study, breast tumour cell line (MCF7), hepatocellular carcinoma cell line (HEPG2), larynx cell line (HEP2), lung cancer cell line (H460), colon cancer cell line (HCT116 and Caco2), hypopharyngeal cell line (FADU), and normal Vero cell line were applied. The full methodology is described in the Supplementary data (SI 1).
(§2) SI 1: Cytotoxicity screening against human cancer cell lines
(§3) In this study, a panel of cell lines was examined for their chemosensitivity. Different concentrations of the synthesized pyridines and pyrimidines derivatives were used in this study (5, 12.5, 25, and 50 µg/ml) for all the examined cell lines. The most sensitive cell line to the treatment regimen was selected and subjected to further investigations to explore the mechanism of this interaction. Human breast tumor cell line (MCF7), human hepatocellular carcinoma cell line (HEPG2), human larynx cell line (HEP2), human lung cancer cell line (H460), human colon cancer cell line (HCT116 and Caco2), human hypopharyngeal cell line (FaDu), and normal cell line Vero were used in this study. It was obtained from the American Type Culture Collection (ATCC, Minnesota, USA). The tumor cell line was maintained at National Cancer Institute (NCI), Cairo, Egypt.
(§4) The antitumor activities of pyridines and pyrimidines derivatives and all tested cell lines were evaluated by sulphorhodamine-B (SRB) assay 1. Briefly, cells were seeded at a density of 3 × 10^3 cells/well in 96-well microtiter plates. They were left to attach for 24 h before incubation with drugs. Next, cells were treated with different concentrations of 5, 12.5, 25, and 50 µg/ml for MCF7, HEPG2, HEP2, HCT116, Caco2, H460, FaDu, and Vero cells. For each concentration, three wells were used and incubation was continued for 48 h. DMSO was used as a control vehicle (1 % v/v). At the end of incubation, cells were fixed with 20 % trichloroacetic acid and stained with 0.4 % SRB dye. The optical density (O.D.) of each well was measured spectrophotometrically at 570 nm using an ELISA microplate reader (TECAN sunrise™, Germany). The mean survival fraction at each drug concentration was calculated as follows: […]
(§5) O.D. of the treated cells/O.D. of the control cells. The IC50 (concentration that produces 50% of cell growth inhibition) value of each drug was calculated using sigmoidal dose-response curve-fitting models (Graph Pad Prizm software, version 5) 1.

[3] = system: HEP2; test: Cytotoxicity screening, SRB assay, HEP2; type: cell-based, human; conditions: for IC50: Homo sapiens, HEp-2, 48 h
Experimental: as §1, §2, §3, §4, §5

[4] = system: CaCo2; test: Cytotoxicity screening, SRB assay, CaCo2; type: cell-based, human; conditions: for IC50: Homo sapiens, Caco-2, 48 h
Experimental: as §1, §2, §3, §4, §5

[5] = system: HEPG2; test: Cytotoxicity screening, SRB assay, HEPG2; type: cell-based, human; conditions: for IC50: Homo sapiens, HepG2, 48 h
Experimental: as §1, §2, §3, §4, §5

[6] = system: H460; test: Cytotoxicity screening, SRB assay, H460; type: cell-based, human; conditions: for IC50: Homo sapiens, NCI-H460, 48 h
Experimental: as §1, §2, §3, §4, §5

[7] = system: HCT116; test: Cytotoxicity screening, SRB assay, HCT116; type: cell-based, human; conditions: for IC50: Homo sapiens, HCT-116, 48 h
Experimental: as §1, §2, §3, §4, §5

[8] = system: FADU; test: Cytotoxicity screening, SRB assay, FADU; type: cell-based, human; conditions: 48 h; for IC50: Homo sapiens, FaDu
Experimental: as §1, §2, §3, §4, §5

[9] = system: T47D; test: Cytotoxicity screening, SRB assay, T47D; type: cell-based, human; conditions: 48 h; for IC50: Homo sapiens, T47D
[10] = system: MCF7; test: Cytotoxicity screening, SRB assay, MCF7; type: cell-based, human; conditions: for IC50: Homo sapiens, MCF7, 48 h
Experimental: as §1, §2, §3, §4, §5

[11] = system: PI3Kd; parameters: method as in PMID 29631787; conditions: inhibitory potential against PI3Kd; cited from earlier work

| Compound | IC50 [2] [mg/L] | IC50 [3] [mg/L] | IC50 [4] [mg/L] | IC50 [5] [mg/L] | IC50 [6] [mg/L] | IC50 [7] [mg/L] | IC50 [8] [mg/L] | IC50 [9] [mg/L] | IC50 [10] [mg/L] | other results |
| --- | --- | --- | --- | --- | --- | --- | --- | --- | --- | --- |
| Cc1cnc2[nH]nc(N)c2c1-c1ccccc1 [Compound VI] |  |  |  |  |  |  |  |  |  | IC50 [1]: 39.8 µM |
| Clc1nc(-c2ccco2)cc(-c2cccs2)c1-c1nnn[nH]1 [Compound 16] | 4.5 (≈ 13.6 µM) | 31 (≈ 94 µM) | 18.2 (≈ 55.2 µM) | 9.7 (≈ 29.4 µM) | 19.4 (≈ 58.8 µM) | 27 (≈ 81.9 µM) | 9 (≈ 27.3 µM) | 8.9 (≈ 27 µM) | 21 (≈ 63.7 µM) |  |
| c1coc(-c2cc(-c3cccs3)n3cnnc3n2)c1 [Compound 9] | 32.5 (≈ 121 µM) | 14.7 (≈ 54.8 µM) | 23.5 (≈ 87.6 µM) | 18.5 (≈ 69 µM) | 43.2 (≈ 161 µM) | 24.3 (≈ 90.6 µM) | 19.6 (≈ 73.1 µM) | 11.5 (≈ 42.9 µM) | 17.2 (≈ 64.1 µM) |  |
| c1coc(-c2cc(-c3cccs3)n3nnnc3n2)c1 [Compound 10] | 28.5 (≈ 106 µM) | 22.8 (≈ 84.7 µM) |  | 7.3 (≈ 27.1 µM) | 2.9 (≈ 10.8 µM) | 33.3 (≈ 124 µM) | 4.5 (≈ 16.7 µM) | 18.2 (≈ 67.6 µM) | 18.7 (≈ 69.4 µM) |  |
| COc1ncc(-c2cc(NC(=O)c3coc(CN4CCN(C(C)C)CC4)n3)c3cnn(C)c3n2)cc1NS(C)(=O)=O [Compound I] |  |  |  |  |  |  |  |  |  | IC50 [11]: 0.0084 µM |
| C1=C(c2ccco2)n2c(nc3ccccc32)SC1c1cccs1 (centres unmarked) [Compound 11] | 24 (≈ 71.3 µM) | 19.5 (≈ 58 µM) | 24.8 (≈ 73.7 µM) | 18.5 (≈ 55 µM) | 4.3 (≈ 12.8 µM) | 42 (≈ 125 µM) | 18.2 (≈ 54.1 µM) | 19.5 (≈ 58 µM) | 15.9 (≈ 47.3 µM) |  |
| COc1cccc2c1C(=O)c1c(O)c3c(c(O)c1C2=O)C[C@@](O)(C(=O)CO)C[C@@H]3O[C@H]1C[C@H](N)[C@H](O)[C@H](C)O1 [DOX, reference compound] |  |  |  |  |  |  |  |  |  | VERO IC50 [2]: 23.00 mg/L; HEP2 IC50 ([3]; 48 h): 5.60 mg/L; CaCo2 IC50 ([4]; 48 h): 6.00 mg/L; HEPG2 IC50 ([5]; 48 h): 4.58 mg/L; H460 IC50 ([6]; 48 h): 6.50 mg/L; HCT116 IC50 ([7]; 48 h): 5.50 mg/L; FADU IC50 [8]: 7.00 mg/L; T47D IC50 [9]: 4.00 mg/L; MCF7 IC50 ([10]; 48 h): 4.50 mg/L |
| N#Cc1c(-c2cccs2)cc(-c2ccco2)nc1NN [Compound 17] | 16.5 (≈ 58.4 µM) | 24 (≈ 85 µM) | 24 (≈ 85 µM) | 4.9 (≈ 17.4 µM) | 12.7 (≈ 45 µM) | 19.3 (≈ 68.4 µM) | 10.5 (≈ 37.2 µM) | 4.9 (≈ 17.4 µM) | 34 (≈ 120 µM) |  |
| Nc1n[nH]c2ncc3c(c12)-c1ccccc1CC3 [Compound V] |  |  |  |  |  |  |  |  |  | IC50 [1]: 6.9 µM |
| CCOC(=O)COc1nc(-c2ccco2)cc(-c2cccs2)c1C#N [Compound 18] | 24.5 (≈ 69.1 µM) | 23 (≈ 64.9 µM) | 23.5 (≈ 66.3 µM) | 9 (≈ 25.4 µM) | 25 (≈ 70.5 µM) | 36.7 (≈ 104 µM) | 22 (≈ 62.1 µM) | 25.5 (≈ 72 µM) | 21.5 (≈ 60.7 µM) |  |
| CC1Cc2cnc3[nH]nc(N)c3c2-c2ccccc21 (centres unmarked) [Compound IV] |  |  |  |  |  |  |  |  |  | IC50 [1]: 4.7 µM |
| N#Cc1c(-c2cccs2)cc(-c2ccco2)nc1OCC(=O)N/N=C/c1ccc([N+](=O)[O-])cc1 [Compound 20] | 10.5 (≈ 22.2 µM) | 31 (≈ 65.5 µM) | 41.5 (≈ 87.7 µM) | 11.5 (≈ 24.3 µM) | 11.3 (≈ 23.9 µM) | 24.7 (≈ 52.2 µM) | 8.5 (≈ 18 µM) | 49.5 (≈ 105 µM) | 12.2 (≈ 25.8 µM) |  |
| N#Cc1c(-c2cccs2)cc(-c2ccco2)nc1Cl [Compound 15] | 21.5 (≈ 75 µM) | 36.8 (≈ 128 µM) | 23.5 (≈ 82 µM) | 12 (≈ 41.8 µM) | 21 (≈ 73.2 µM) | 22 (≈ 76.7 µM) | 17.5 (≈ 61 µM) | 49.4 (≈ 172 µM) | 14.7 (≈ 51.3 µM) |  |
| N#Cc1c(-c2cccs2)cc(-c2ccco2)nc1OCC(=O)NN [Compound 19] | 36 (≈ 106 µM) | 43.5 (≈ 128 µM) | 10.8 (≈ 31.7 µM) | 24.2 (≈ 71.1 µM) | 41.5 (≈ 122 µM) |  | 20.5 (≈ 60.2 µM) | 32 (≈ 94 µM) | 39.5 (≈ 116 µM) |  |
| N#Cc1c(-c2cccs2)cc(-c2ccco2)nc1OCC(=O)N/N=C1/C(=O)Nc2ccccc21 [Compound 21] | 38.2 (≈ 81.4 µM) | 19.8 (≈ 42.2 µM) | 34 (≈ 72.4 µM) | 5 (≈ 10.7 µM) | 23.3 (≈ 49.6 µM) |  | 10.9 (≈ 23.2 µM) | 17 (≈ 36.2 µM) | 9.5 (≈ 20.2 µM) |  |
| N#Cc1c(-c2cccs2)cc(-c2ccco2)nc1-c1c[nH]c2ccccc12 [Compound 13] |  | 4.8 (≈ 13.1 µM) |  | 8.6 (≈ 23.4 µM) |  | 44.3 (≈ 121 µM) | 15.9 (≈ 43.3 µM) | 21 (≈ 57.2 µM) | 7.8 (≈ 21.2 µM) |  |
| COc1ncc(-c2cc(O[C@@H]3CCN(C(=O)C4CCOCC4)C3)c3cnn(C)c3n2)cc1NS(C)(=O)=O [Compound II] |  |  |  |  |  |  |  |  |  | IC50 [11]: 0.0053 µM |
| Nc1nn2c(-c3cccs3)cc(-c3ccco3)nc2c1/N=N/c1ccc([N+](=O)[O-])cc1 [Compound 7] | 12 (≈ 27.8 µM) | 35.2 (≈ 81.6 µM) | 21.5 (≈ 49.8 µM) | 12 (≈ 27.8 µM) | 3.7 (≈ 8.58 µM) | 15 (≈ 34.8 µM) | 8.3 (≈ 19.2 µM) | 44.5 (≈ 103 µM) | 13.7 (≈ 31.8 µM) |  |
